The record followed here is paper PMC7501296, “Rapid and direct control of target protein levels with VHL-recruiting dTAG molecules” (Nature Communications, 2020).

Molecules are shown by their SMILES. “And” between values parts separate entries of the source, which are not always exact repeats. Identical values can stand only once.

The subject of the assay is EWS502 FKBP12^F36V-EWS/FLI; EWS/FLI^−/− cells. The experiment in a line: Quantitative MS proteomics, EWS502 FKBP12F36V-EWS/FLI; EWS/FLI-/- cells. The class given is cell-based, Homo sapiens. To be noted: for TMT intensity per TMT channel: biological replicates. The protocol: Cell pellets from PATU-8902 and EWS502 cells were lysed using 8 M urea, 200 mM 4-(2-hydroxyethyl)-1-piperazinepropanesulfonic acid (EPPS) at pH 8.5 with protease inhibitors. Samples were further homogenized and DNA was sheered via sonication using a probe sonicator (20 × 0.5 s pulses; level 3). Total protein was determined using a BCA assay and stored at −80 °C until future use. A total of 100 µg of protein was aliquoted for each condition and TMT channel for further downstream processing. Protein extracts were reduced using 10 mM dithiothreitol (DTT) for 30 min at room temperature. Next, samples were alkylated with 20 mM iodoacetamide for 45 min in the dark at room temperature. To facilitate the removal of incompatible reagents, proteins were precipitated using chloroform methanol. Briefly, to 100 µL of each sample, 400 µL of methanol was added, followed by 100 µL of chloroform with thorough vortexing. Next, 300 µL of HPLC grade water was added and samples were vortexed thoroughly. Each sample was centrifuged at 14,000 × g for 5 min at room temperature. The upper aqueous layer was removed and the protein pellet was washed twice with methanol and centrifuged at 14,000 × g for 5 min at room temperature. Protein pellets were resolubilized in 200 mM EPPS buffer and digested overnight with Lys-C (1:100, enzyme:protein ratio) at room temperature. The next day, trypsin (1:100 ratio) was added and incubated at 37 °C for an additional 6 h in a ThermoMixer set to 1000 RPM.
To each digested sample, 30% anhydrous acetonitrile was added and 100 µg of peptides were labeled using 200 µg of TMT reagent (TMT1-TMT11). Following labeling, a 5% hydroxylamine solution was used to quench excess TMT reagent. To equalize protein loading, a ratio check was performed by pooling 2 µg of each TMT-labeled sample. Samples were pooled and desalted using in-house packed C18 StageTips and analyzed by LC-MS/MS. Normalization factors were calculated from this label check, samples were mixed 1:1 across all TMT channels and desalted using a 100 mg Sep-Pak solid phase extraction cartridge. Eluted pooled peptides were further fractionated with basic-pH reverse-phase (bRP) HPLC using an Agilent 300 extend C18 column and collected into a 96 deep-well plate. Samples were consolidated into 24 fractions, and 12 nonadjacent fraction were desalted using StageTips prior to analyses using LC-MS/MS[35]–[37].
All mass spectrometry data was acquired using an Orbitrap Fusion mass spectrometer in-line with a Proxeon NanoLC-1000 UHPLC system. Peptides were separated using an in-house 100 µm capillary column packed with 40 cm of Accucore 150 resin (2.6 µm, 150 Å) (Thermo Fisher Scientific) using a 180 min LC gradient per fraction. Eluted peptides were acquired using synchronous precursor selection (SPS-MS3) method for TMT quantification. Briefly, MS1 spectra were acquired at 120 K resolving power with a maximum of 50 ms in the Orbitrap. MS2 spectra were acquired by selecting the top ten most abundant features via collisional induced dissociation (CID) in the ion trap using an automatic gain control (AGC) of 15 K, quadrupole isolation width of 0.7 m/z and a maximum ion time of 100 ms. For MS3 acquisition, a synchronous precursor selection of ten fragment ions was acquired with an AGC of 150 K for 150 ms and a normalized collision energy of 55.
All acquired raw data were converted to mzXML using Raw File Reader (v3.0.77). Spectra were processed using Comet (2019.01.5)[39]–[41], search results were filtered using the LDA function MASS Package in R, and data were processed using an in-house informatics pipeline[42]–[44]. Custom code was not developed in this study. Briefly, peptide spectral libraries were first filtered to a peptide false discovery rate (FDR) of less than 1% using linear discriminant analysis employing a target decoy strategy. […]

In the case of `CC[C@H](C(=O)N1CCCC[C@H]1C(=O)O[C@H](CCc1ccc(OC)c(OC)c1)c1ccccc1OCC(=O)NCCCCCCC(=O)N[C@H](C(=O)N1C[C@H](O)C[C@H]1C(=O)N[C@@H](C)c1ccc(-c2scnc2C)cc1)C(C)(C)C)c1cc(OC)c(OC)c(OC)c1` [dTAG^V-1], the “Downstream EWS/FLI targets such as NKX2-2” value (1 μM) is recorded as “decrease”. Besides, the “FKBP12F36V-EWS/FLI abundance, proteomics” value (1 μM, 6 h) was “pronounced loss”. The “TMT intensity per TMT channel” value (protein ALX1, 2 h) was 329.39 and 330.899 and 363.825; the “TMT intensity per TMT channel” value (protein ALX1, 6 h) is 447.307 and 474.897 and 456.686; the “TMT intensity per TMT channel” value (protein ALX1, 24 h) was 404.298 and 454.379 and 455.33; the “TMT intensity per TMT channel” value (protein ALX4, 2 h) is 469.052 and 457.885 and 499.883; the “TMT intensity per TMT channel” value (protein ALX4, 6 h) is 458.233 and 484.524 and 491.274; the “TMT intensity per TMT channel” value (protein ALX4, 24 h) is 439.297 and 450.367 and 443.433. In addition, the “TMT intensity per TMT channel” value (protein HOXD13, 2 h) is 710.117 and 733.089 and 700.291; the “TMT intensity per TMT channel” value (protein HOXD13, 6 h) was 834.508 and 881.589 and 912.211; the “TMT intensity per TMT channel” value (protein HOXD13, 24 h) was 931.777 and 1032.27 and 996.28; the “TMT intensity per TMT channel” value (protein PHOX2B, 2 h) was 138.138 and 127.877 and 140.273; the “TMT intensity per TMT channel” value (protein PHOX2B, 6 h) is 146.64 and 175.628 and 155.142; the “TMT intensity per TMT channel” value (protein PHOX2B, 24 h) was 163.818 and 130.026 and 156.319. For the same molecule, the “TMT intensity per TMT channel” value (protein SLC12A2, 2 h) was 2102.8 and 2152.89 and 2069.05; the “TMT intensity per TMT channel” value (protein SLC12A2, 6 h) was 2768.92 and 2608.81 and 2791.59; the “TMT intensity per TMT channel” value (protein SLC12A2, 24 h) was 2883.76 and 2924.13 and 2976.61. For the same molecule, under “protein HMGCR, 1 μM, 6 h”, the “Fold change > 2” value is “+ (Fold change in which '+' refers to fold change > 2.)”. Also, the “log2 (Fold change) compared to DMSO” value reads like this: (protein HMGCR, 1 μM, 6 h) 1.415; (protein NOB1, 1 μM, 6 h) 0.3965; (protein PRCP, 1 μM, 6 h) -0.5172; (protein SQLE, 1 μM, 6 h) 0.8919; (protein TMEM126A, 1 μM, 6 h) -0.3183.
